{"source": "paper PMC8280143", "about": "“A novel dephosphorylation targeting chimera selectively promoting tau removal in tauopathies” (Signal Transduction and Targeted Therapy, 2021)", "key": {"human tau (hTau)": {"tested_on": "human tau (hTau)", "assay": "Immunofluorescence staining of phospho-tau in primary neurons with hTau overexpression", "format": "cell-based", "details": "DEPTAC 200 μM for 24 h; *p < 0.05, **p < 0.01, n = 3 cell wells", "description": "Lentivirus LV-EF1α-hTau-GFP (3.50E+8 vg/mL) was packaged by OBiO (Shanghai, China) and used for hTau-overexpression (fused with GFP) in cultured primary rat neurons. AAV-CaMKIIα-Cre (diluted to 5.21E + 07 vg/mL) and AAV-EF1α-DIO-mCherry (3.24E + 12 vg/mL) were obtained from BrainVTA (Wuhan, China) and co-injected (1:1 vol/vol) for sparse labeling of dorsal DG neurons. Doxycycline was purchased from Energy Chemical (Shanghai, China). Rabbit polyclonal DEPTAC antibody was prepared by Daian Biotechnology (Wuhan, China). All other reagents including MG132 were purchased from Sigma-Aldrich (USA), unless otherwise specified.\nPrimary hippocampal neurons were prepared from E12–E15 days SD rat embryos. Briefly, pregnant rats were acutely executed, hippocampus was dissected on ice and gently minced in DME/F12 (Hyclone) then suspended in 0.125% (vol/vol) trypsin solution at 37 °C for 20 min. Enzymatic activity was stopped by fetal bovine serum. Neurons were initially kept in 10% FBS-containing DME/F12 for 4–6 h, and subsequently cultured in Neurobasal (Hyclone) with 2% B27, 1% glutamax and 1% penicillin–streptomycin (Thermo Fisher Scientific) in dishes pre-coated with 100 μg/mL poly-D-lysine. Serum was gradually removed by replacing half of the medium for each time within the following 2 days. […]"}, "[1]": {"tested_on": "dentate granular cells of Tau368 mice", "assay": "Sholl analysis of dendrite complexity", "format": "in vivo, mouse", "description": "(§1) For 2-month male C57BL/6 mice, 10 mM FITC-labeled or unlabeled-DEPTAC were directly injected through the tail vein or lateral ventricle for the evaluation of BBB-penetrability. For 9-month 3×Tg AD mice or Tau368 (20–30 g body weight), unlabeled-DEPTAC (5 mM, 1 μL for each time) was delivered for once into the lateral ventricle through direct stereotaxic injection, or repeatedly administrated through guiding cannulas (RWD, Shenzhen, China) implanted into the lateral ventricle once every 3 days for a consecutive month to test its dephosphorylation efficiency. Mice were restricted in a custom designed device and stayed awake during drug administration, and sacrificed at 24 h post the single or last DEPTAC administration.\nA total volume of 0.3 μL mixture of AAV-CaMKIIα-Cre (5.21E+07) and AAV-EF1α-DIO-mCherry (3.24E+12) (1:1 vol/vol) was stereotaxically injected into the dDG of Tau368 mice 1 month following the beginning of dox or normal drinking water administration. Dox was stopped 1-month post AAVs injection, and DEPTAC were delivered through lateral ventricle for a consecutive month. Behavioral tests were performed after the DEPTAC administration, and mice were killed after behavioral tests. Hippocampal sections of 60 μm were obtained, and fluorescent images were taken by a two-photon laser-scanning confocal microscope (LSM710, Zeiss). The dendrite complexity of granular cells in the dorsal dentate gyrus was evaluated by Sholl analysis using Simple Neurite Tracer plugin and ImageJ (Fiji) software. Dendrite spine density and the averaged area of mossy fiber punctas were evaluated using ImageJ by an experimenter blinded from mice groupings. It should be noted that the fluorescence-labeled mossy fibers assembled densely in the CA3 subset, the main target area of mossy fiber axon terminals, making it difficult to accurately measure the puncta areas (data not shown). Therefore, we chose the hilus of DG subset for the measurement, which we believe should be also valid to indicate the axon plasticity of DG granular cells."}, "pS396-tau": {"tested_on": "pS396-tau", "assay": "pS396-tau immunostaining in the DG of Tau368 mice", "format": "in vivo, mouse", "details": "DEPTAC for a consecutive month after stopping dox; **p < 0.01, n = 4–5 mice", "description": "as §1\nCultured neurons were fixed with 4% paraformaldehyde for 15 min. For animal experiments, mice were anesthetized with 1% pentobarbital sodium and intracardially perfused with normal saline followed by 4% paraformaldehyde (in 0.1 M phosphate buffer, pH 7.4). Mice brains were removed, post-fixed in 4% PFA for 12 h, and then cryoprotected in 20% and 30% sucrose solutions in turn. Fifty micrometer brain sections were sliced using a cryostat microtome (Leica). […]"}}, "note": "“Also recorded” adds a separate entry of the source.", "data": [{"substance": "(1) YQQYQDATADEQG, originates from the porcine β-tubulin 422–434 for recognizing and binding tau proteins.[5],[6] (2) GSGS, a linker for increasing the flexibility of the peptide.[15] (3) KKVAVVRTPPKSP, for recruiting PP2A-Bα,[16] and (4) RRRRRRRR [DEPTAC, DEPhosphorylation TArgeting Chimera; 38 amino acid residues, C185H314N72O56]", "values": [{"measurement": "averaged immunoreactive (IR) intensity of phospho-tau", "setting": "human tau (hTau)", "value": "reduced"}, {"measurement": "dendrite complexity, NW-treated", "setting": "[1]; NW-treated Tau368 mice, n = 3~5 mice, 12~22 neurons", "value": "did not statistically change; also recorded: no statistically significant change"}, {"measurement": "neurite differentiation in control mice", "setting": "[1]; control mice without human tau accumulation", "value": "did not statistically change"}, {"measurement": "dendrite complexity, dox-treated", "setting": "[1]; dox-treated Tau368 mice, n = 3~5 mice, 12~22 neurons", "value": "did not statistically change; also recorded: no statistically significant change"}, {"measurement": "level of pS396-tau immunostaining in the DG", "setting": "pS396-tau", "value": "ameliorated"}]}]}
